Data from patent US20160206620A1, “PURIN DERIVATIVES FOR USE IN THE TREATMENT OF FAB-RELATED DISEASES” (Boehringer Ingelheim International GmbH, priority 2008, published 2016).

Columns and labels:
clinical = conditions: human, urine
ob/ob mice [1] = assay: Oral glucose tolerance test in ob/ob mice; format: in vivo, mouse; conditions: 3 mg/kg daily, OGTT 2 g/kg on day 10
Protocol: (§1) Female C57BI/6J-ob/ob mice (Charles River, Sulzfeld) in the age of 8-9 weeks were used. 6 excisional wounds (including the panniculus carnosus) were placed on the back of each animal under ketamin anaesthesia. The animals were treated daily with 3 mg/kg of BI 1356 or methycellulose (1-2%). On day 10 an oral glucose tolerance test (2 g/kg) was performed (0, 30, 60, 90, 120 and 180 min) at the tail tip. Animals were killed under isofluran anaesthesia by cervical dislocation and wounds were excised for histological analysis. Serum was further taken for the detection of DPP-4 activity. Histology was performed in 6-8 μm paraffin embedded and paraformaldehyd fixed cuttings with eosin-hematoxylin staining. Moreover, polymorphonuclear neutrophils (PMN) were identified by immunohistological staining of Ly6G as a robust readout for wound inflammation. (Ref. S. Frank, Methods in Molecular Medicine 2003, Kämpfer, Diabetes 2006)

[2] = Safety and tolerability in people with type 2 diabetes
[3] = Pharmacokinetics of BI 1356 in patients with type 2 diabetes, multiple oral doses once daily for 12 days; conditions: for RA, AUC (accumulation ratio), gMean (gCV) / RA, Cmax (accumulation ratio), gMean (gCV) / feτ, ss, gMean (gCV): steady state (Day 12); for fe0-24, gMean (gCV): type 2 diabetes patients
ob/ob mice [4] = assay: Wound healing of excisional wounds in ob/ob mice (histology, Ly6G staining); format: in vivo, mouse; conditions: 3 mg/kg daily
Text: The ob/ob mice have been used and are accepted as experimental model for diabetes-impaired wound healing. These animals suffer from severe diabetes and obesity syndromes which show similar characteristics like in the human situation (e.g. obesity, insulin resistance). Insulin and diet reduce hyperglycemia in obese mice just they as they do in obese and diabetic subjects, but neither improves healing in these animals as has been shown recently.
as §1

[5] = 2 h postprandial blood glucose excursions in patients with type 2 diabetes; format: in vivo, human; conditions: already on Day 1, doses ≧2.5 mg
Text: […]. […] […]. […] […].

SMILES: CC#CCn1c(N2CCC[C@@H](N)C2)nc2c1c(=O)n(Cc1nc(C)c3ccccc3n1)c(=O)n2C [BI 1356, 1-[(4-methyl-quinazolin-2-yl)methyl]-3-methyl-7-(2-butyn-1-yl)-8-(3-(R)-amino-piperidin-1-yl)-xanthine]
- CL renal (clinical; oral, 5 mg): ~70 mL/min
- CL renal (clinical; po): 14 to 70 mL/min
- reduction of glucose excursion following oral glucose tolerance assay (absolute AUC) (ob/ob mice [1]): 25%
- safety and tolerability [2]: placebo-like safety and tolerability
- RA, AUC (accumulation ratio), gMean (gCV) ([3]; 1 mg oral once daily): 2.03 (30.7)
- RA, Cmax (accumulation ratio), gMean (gCV) ([3]; 1 mg oral once daily): 1.44 (25.6)
- feτ, ss, gMean (gCV) ([3]; 1 mg oral once daily): 3.34 (38.3) %
- RA, AUC (accumulation ratio), gMean (gCV) ([3]; 2.5 mg oral once daily): 1.37 (8.2)
- RA, Cmax (accumulation ratio), gMean (gCV) ([3]; 2.5 mg oral once daily): 1.25 (10.6)
- feτ, ss, gMean (gCV) ([3]; 2.5 mg oral once daily): 3.06 (45.1) %
- fe0-24, gMean (gCV) ([3]; 2.5 mg oral once daily): 0.139 (51.2) %
- RA, AUC (accumulation ratio), gMean (gCV) ([3]; 5 mg oral once daily): 1.33 (15.0)
- RA, Cmax (accumulation ratio), gMean (gCV) ([3]; 5 mg oral once daily): 1.33 (30.0)
- feτ, ss, gMean (gCV) ([3]; 5 mg oral once daily): 6.27 (42.2) %
- fe0-24, gMean (gCV) ([3]; 5 mg oral once daily): 0.453 (125)^ %
- RA, AUC (accumulation ratio), gMean (gCV) ([3]; 10 mg oral once daily): 1.18 (23.4)
- RA, Cmax (accumulation ratio), gMean (gCV) ([3]; 10 mg oral once daily): 1.40 (47.7)
- feτ, ss, gMean (gCV) ([3]; 10 mg oral once daily): 3.22 (34.2) %
- fe0-24, gMean (gCV) ([3]; 10 mg oral once daily): 0.919 (115)^ %
- mean accumulation ratio RA,AUC ([3]; doses above 1 mg, once daily oral): ≤ 1.4
- excreted via the kidney ([3]; therapeutic oral dose levels): < 7 % of the administered oral dose
- route of excretion ([3]; therapeutic oral dose levels): primarily excreted unchanged via the bile
- PMN accumulation in wounds (Ly6G immunohistology) (ob/ob mice [4]): overall reduction of PMN accumulation
- wound morphology and wound re-epithelialization (histology) (ob/ob mice [4]): profound improvement of wound morphology and wound re-epithelialization
- distance between wound margin epithelia (wound size) (ob/ob mice [4]; treated for 12 day, control 2.02±1.07 mm): 0.74±0.90 mm
- decrease in 2 h postprandial blood glucose excursions [5]: ≥ 80%
